The source of these data is US8703424B2, “Predicting human developmental toxicity of pharmaceuticals using human stem-like cells and metabolomics” (Stemina Biomarker Discovery, Inc., priority 2010, dated 2014).

In data set [1] the test system is hESCs. Put plainly: Arginine / ADMA fold change ratio (integrated EICs) in dosed hESCs vs controls. The note with it: for Arg fold change/ADMA fold change: EIC areas, controls vs. dosed. As to the method:
All tested chemicals were purchased from Sigma-Aldrich (St. Louis, Mo.). Cells were dosed with drugs at a concentration equivalent to their published serum circulating therapeutic dosages. Dosing was performed on hESCs in 6-well plates in triplicate, i.e. three wells per plate. The plates were dosed in triplicate, so there were a total of nine dosed wells. In parallel, there were nine “control” wells, in which hESCs were cultured with mTeSR1 containing no drug, and three wells containing Matrigel with mTeSR1 medium without hESCs that served as medium controls. Lastly, three wells of dosed medium controls were prepared, containing Matrigel, mTeSR1 and drug, but no hESCs (FIG. 1). These medium controls provided baseline mass spectral data. On the first day of dosage, the determined concentration of drug was dissolved in mTeSR1, and then 2.5 mL of this solution was added to each dosed well of hESCs. Each day, for four days, the medium was removed and new dosed medium was added. On the fourth day, the medium was removed and added to acetonitrile to make a 40% acetonitrile solution, as outlined in the Sample Preparation section below.
Mass spectrometry was performed using an Agilent QTOF LC/MS system consisting of a G6520AA QTOF high resolution mass spectrometer capable of exact mass MS and MS/MS. In order to facilitate separation of small molecules with a wide range of polarity and to allow increased retention of hydrophilic species, Hydrophilic Interaction Liquid Chromatography (Alpert 1990) was employed. Each sample was run for 30 minutes with the gradient shown in Table 3 at a flow rate of 0.5 mL/min, using 0.1% formic acid in water (Solvent A) and 0.1% formic acid in acetonitrile (Solvent B). Electrospray ionization was employed using a dual ESI source, with an Agilent isocratic pump continuously delivering an internal mass reference solution into the source at approx. 0.01 mL/min. The mass range of the instrument was set to 100-1700 Da. A Phenomenex Luna HILIC column with dimensions 3×100 mm 3 μm particle size was used and maintained at 30° C. 5 μl of each sample was injected. Data acquisition was performed with Agilent MassHunter using high-resolution exact mass conditions.
Valproate is known to cause neural tube defects (DiLiberti et al. 1984) while nitric oxide synthase activity is essential for neural tube closure (Nachmany et al. 2006).

The subject of data set [2] is WA09 hESCs. The data set is described as follows: LC-MS metabolomics: abundance changes of metabolites in hESCs dosed at circulating dose. Type of data set: cell-based, human. As to the method: (§1) These medium controls provided baseline mass spectral data.
(§2) The 2.5 mL of spent media per well from Example 1 was added to 1.67 mL acetonitrile to make a 40% acetonitrile solution. The acetonitrile acts to “quench” the spent media sample, slowing or halting many metabolic processes and aiding in precipitation of cellular proteins. Samples were either stored at −80° C. for later analysis, or for immediate analysis, 250 μL of the quenched solution was mixed with 250 μL of water, to a final concentration of 20% acetonitrile, then added to a 3 kDa molecular weight cut-off filter spin column (Microcon YM-3 Centrifugal Filter, Millipore, Billerica, Mass.). Each sample was then centrifuged in an IEC CL31R Multispeed Centrifuge (Thermo Scientific, Waltham, Mass.) at 13,000×g at 4° C. for 200 minutes. Following centrifugation, the flow-through was saved then dried for several hours in a Savant High Capacity Speedvac Plus Concentrator. The concentrated sample was then dissolved in 50 μL of 0.1% formic acid prior to LC-MS analysis.
(§3) 5 μl of each sample was injected.
(§4) Following LC-MS, chromatograms were inspected for reproducibility. LC-MS runs with total ion counts that vary by more than 25% were repeated to ensure that samples could be accurately compared. These runs were then used to create mass features that correspond to molecules detected across the different LC-MS runs. Mass features were extracted from the LC-MS data using MassHunter Qualitative Analysis software (Agilent Technologies). The following criteria were used as general guidelines, however some flexibility and optimization was needed. m/z values within the range of 75-1500, with a charge of +1 or −1, and a centroid height greater than 1000 were used to generate “mass features.” The mass peaks that pass these criteria were used to fit isotope and adduct (Na^+, K^+, and NH4^+) patterns corresponding to individual molecules, and to establish the abundance of each mass feature. The abundance is calculated by MassHunter software as the sum of the isotopic and adduct peaks that correspond to a single molecular feature. After data deconvolution, mass features showing at least two ions (e.g. (M^+H)^+ and (M^+H)^++1 or (M^+H)^+ and (M^+Na)^+) and an abundance value greater than 50000 for positive-ion mode data and 10000 in negative-ion mode data were included in the data set used for binning of the mass features.
The media represents a major factor in the experimental system, in that it contributes many peaks to mass spectra. This can be accounted for in a data dependent manner to select for mass feature bins, which are present at significant levels above the media. Mass feature bins present solely in the presence of cells (not detected in media) or with average abundance levels different than uncultured media were considered to be secreted, excreted, consumed, or identified metabolites.
The exact mass of the metabolite must be within 10 ppm of the known mass of the compound. 2) The retention time of the metabolite detected in the cell media must be within + or −30 seconds of a reference standard on which MS data had been acquired under the same conditions. The reference standards were dissolved in mTeSR media and prepared in exactly the same manner (described above) as the samples from the cells, including the addition of acetonitrile, Centricon centrifugal filtration, drying then dissolution in formic acid prior to LC-MS analysis. 3) The MS-MS fragmentation spectra of the metabolite detected in the cell media must be a reasonable match with that of the reference standard, including abundances and m/z values of the fragment ions. If published MS-MS spectra are available, the MS-MS spectra must also be a reasonable match.

Data set [3] has as its system WA09 human embryonic stem (hES) cells. Put plainly: PLS-DA prediction of teratogenicity from secretome of treated hES cells (Example 9). The note with it: DevTox pharmaceutical.
Source text: These included 11 known teratogens and 11 known non-teratogens. The current model is based on the mean fold change (treatment versus its associated intra-experimental control) of 15 metabolites common among the secretome of hES cells treated with pharmaceutical agents and unknown chemical compounds.
For data set [4], the system named is WA09 hESCs. Put plainly: Random forest prediction of teratogenicity from metabolomics of spent media of dosed hESCs. The settings on record: for Classification by the refined random forest model (FIG. 3): 18-feature model, 26 drug treatment experiments; for Predicted teratogenicity (random forest statistical model): blind study, model trained on TS1, 142 mass features, circulating dose. The class given is cell-based, human. As to the method: WA09 hESCs, obtained from WiCell Research Institute (NIH National Stem Cell Bank, Madison, Wis.) were cultured in 6-well plates on Matrigel (BD Biosciences, San Jose, Calif.), in mTeSR1 medium (Stem Cell Technologies, Vancouver, BC) incubated at 37° C. under 5% CO2 in a Thermo Electron Form a Series II Water Jacket CO2 Incubator. hESCs were passaged every three or four days at a 1:3 or 1:6 seeding density for routine culture conditions. For dosing experiments, hESCs were passaged at a low density of 1:10 or 1:12 so that they would not require passaging during the […] dosing protocol. To passage hES cells, the StemPro® EZPassage™ disposable stem cell passaging tool (Invitrogen, Carlsbad, Calif.) was used to detach the cells from the wells. Detached cells were removed with a pipette and distributed to new Matrigel plates.
as §1, §2, §3, §4
Following feature selection by MassHunter, the data was further preprocessed by MassProfiler (Agilent) software which aligns mass features across multiple LC-MS data files. Mass features were generated for data from each drug treatment experiment (dosed and control) using the default alignment settings in MassProfiler with the requirement that a feature be present in at least 80% of the samples in one treatment. The mass feature datasets for each drug treatment experiment were further processed in a global manner using custom analysis scripts executed in the R statistical software environment. […]

[5] abbreviates: high dose (H = 10x circulating dose).
Setting [6] is: low dose (L = 0.1x circulating dose).

Take `O=c1[nH]cc(F)c(=O)[nH]1` [5-Fluorouracil]: in data set [1], the “Arg/ADMA Prediction” value is “Ter” and the “Arg fold change/ADMA fold change” value was found to be 43.93. The “Changes in metabolites on dosing” value in data set [2] was “most profound changes in many metabolites”. In data set [2] (drug-treated vs control), the “Abundance of succinic acid” value was “significant down regulation”. Further, in data set [3] (setting [5]), the “% Non (PLS-DA class probability non-teratogen)” value (“% Non” for short) was 0.32, the “% Ter (PLS-DA class probability teratogen)” value (from here on “% Ter”) was 0.68, the “Confidence (difference between class probabilities)” value is recorded as 0.36 and the Prediction result is “Ter”. Also, in data set [3] (setting [6]), the “% Non” value is 0.28, the “% Ter” value is given as 0.72, the “Confidence (difference between class probabilities)” value is recorded as 0.44 and the Prediction result is recorded as “Ter”.
`CC1=C(/C=C/C(C)=C/C=C/C(C)=C\C(=O)O)C(C)(C)CCC1` [Accutane]: in data set [4], the “Classification by the refined random forest model (FIG. 3)” value is given as “misclassified as non-teratogens” and the “Predicted teratogenicity (random forest statistical model)” value (from here on “Predicted teratogenicity”) is recorded as “Non”. Further, in data set [1], the “Arg/ADMA Prediction” value is reported as “Ter” and the “Arg fold change/ADMA fold change” value was 0.55. For the same molecule, in data set [3] (setting [5]), the “% Non” value is reported as 0.3, the “% Ter” value is reported as 0.7, the “Confidence (difference between class probabilities)” value is recorded as 0.4 and the Prediction entry is given as “Ter”. Besides, in data set [3] (setting [6]), the “% Non” value was 0.33, the “% Ter” value is given as 0.67, the “Confidence (difference between class probabilities)” value is 0.34 and the Prediction result is given as “Ter”.
For `CCCCc1oc2ccccc2c1C(=O)c1cc(I)c(OCCN(CC)CC)c(I)c1` [Amiodarone], in data set [4], the “Predicted teratogenicity” value is “Ter”. Further, in data set [1], the “Arg/ADMA Prediction” value is on record as “Ter” and the “Arg fold change/ADMA fold change” value stood at 1.64.
`CS(=O)(=O)OCCCCOS(C)(=O)=O` [Busulfan]: in data set [1], the “Arg/ADMA Prediction” value is “Ter” and the “Arg fold change/ADMA fold change” value is recorded as 1.12. The “Concentration of GABA in the secretome of hESCs” value in data set [2] (dosed hESCs) is given as “Increased concentrations”. Also, in data set [3] (setting [5]), the “% Non” value is 0.28, the “% Ter” value is reported as 0.72, the “Confidence (difference between class probabilities)” value is given as 0.44 and the Prediction entry is reported as “Ter”. Besides, in data set [3] (setting [6]), the “% Non” value is 0.29, the “% Ter” value is given as 0.71, the “Confidence (difference between class probabilities)” value is 0.42 and the Prediction result is recorded as “Ter”.
For the molecule `Nc1ccn([C@@H]2O[C@H](CO)[C@@H](O)[C@@H]2O)c(=O)n1` [Cytosine Arabinoside], in data set [1], the “Arg/ADMA Prediction” value is “Ter” and the “Arg fold change/ADMA fold change” value came to 67.01. The “Changes in metabolites on dosing” value in data set [2] is listed as “most profound changes in many metabolites”. Further, in data set [2] (drug-treated vs control), the “Abundance of succinic acid” value is “significant down regulation”.
On to `NC(=O)NO` [Hydroxyurea], for which, in data set [1], the “Arg/ADMA Prediction” value was “Ter” and the “Arg fold change/ADMA fold change” value turned out to be 2.52. Further, the “Abundance of succinic acid” value in data set [2] (drug-treated vs control) is reported as “significant down regulation”. Also, in data set [3] (setting [5]), the “% Non” value was 0.32, the “% Ter” value is 0.68, the “Confidence (difference between class probabilities)” value is 0.36 and the Prediction result is given as “Ter”. Further, in data set [3] (setting [6]), the “% Non” value is on record as 0.64, the “% Ter” value is recorded as 0.36, the “Confidence (difference between class probabilities)” value was 0.28 and the Prediction entry was “Non”.
Regarding `CO[C@H]1/C=C/O[C@@]2(C)Oc3c(C)c(O)c4c(O)c(c(/C=N/N5CCN(C)CC5)c(O)c4c3C2=O)NC(=O)/C(C)=C\C=C\[C@H](C)[C@H](O)[C@@H](C)[C@@H](O)[C@@H](C)[C@H](OC(C)=O)[C@@H]1C` [Rifampicin], in data set [4], the “Classification by the refined random forest model (FIG. 3)” value is given as “misclassified as non-teratogens” and the “Predicted teratogenicity” value is “Ter”. Also, in data set [1], the “Arg/ADMA Prediction” value is reported as “Ter” and the “Arg fold change/ADMA fold change” value is recorded as 0.81. In data set [3] (setting [5]), the “% Non” value was 0.27, the “% Ter” value was 0.73, the “Confidence (difference between class probabilities)” value is listed as 0.46 and the Prediction entry is recorded as “Ter”. In addition, in data set [3] (setting [6]), the “% Non” value is listed as 0.46, the “% Ter” value is listed as 0.54, the “Confidence (difference between class probabilities)” value is reported as 0.08 and the Prediction entry is reported as “Ter”.
For `CCCC(CCC)C(=O)O` [Valproic Acid], in data set [1], the “Arg/ADMA Prediction” value is given as “Ter” and the “Arg fold change/ADMA fold change” value came out at 2.11. In addition, in data set [2] (drug-treated vs control), the “Abundance of asymmetric dimethylarginine (ADMA)” value was “significant fold decrease” and the “Abundance of succinic acid” value is “significant down regulation”.
